For experiment [1], the system named is IL-1β in GCF. The conditions noted are these: used as an oral rinse; cited from earlier work.
Experiment [2] deals with serum glucose. Nature of the experiment: Serum glucose levels as indicator of metabolic control. Format: in vivo, human. The conditions noted are these: Ketorolac treatment, Example 11. The method, then:
(§1) Glycated hemoglobin (HbA1c) levels were measured from freshly drawn anticoagulated whole blood using an automated affinity chromatography system (BioRad Micromat II, Hercules, Calif.). Serum glucose was determined by the glucose oxidase method (Roche Diagnostics, Basel, CH). […] The study is performed as described in example 8. HbA1c levels and serum glucose levels, which are used as indicators of metabolic control, are measured as described in example 6.

In experiment [3] the test system is circulating TNF. Nature of the experiment: Circulating TNF level (blood TNF alpha immunoassay) after ketorolac oral rinse. The class given is in vivo, human. To be noted: oral rinse containing 0.1% Ketorolac twice daily for 6 months; type 2 diabetes and chronic periodontitis subjects. How it is done: Subjects are selected and divided into different groups as described in Examples 1 and 2. An oral rinse containing 0.1% Ketorolac was administered twice daily for 6 months to reduce the level of IL-1β in GCF in the subjects (see, Cavanaugh et al., Coordinate production of PGE2 and IL-1 beta in the gingival crevicular fluid of adults with periodontitis: its relationship to alveolar bone loss and disruption by twice daily treatment with ketorolac tromethamine oral rinse. J. Periodontal Res. 33:75-82, 1998). GCF samples are collected following the procedures of example 3 and the level of IL-1β in GCF is determined as described in example 5. Circulating TNF level is determined by measuring blood TNF level using the TNF alpha immunoassay kit (Assay Designs Inc., Ann Arbor, Mich.) following the manufacturer's instructions.

Experiment [4] relates to HbA1c. Kind of experiment: HbA1c levels as indicator of metabolic control. Format: in vivo, human. The conditions noted are these: Ketorolac treatment, Example 11. The method, then:
as §1

Experiment [5] has as its system IL-1β in GCF. Kind of experiment: Level of IL-1β in gingival crevicular fluid (sandwich ELISA) after ketorolac oral rinse. The conditions noted are these: Ketorolac treatment, Example 11. Format: in vivo, human. An excerpt: The clinical evaluation was preceded by collection of GCF, as previously described (Lamster et al., A comparison of 4 methods of data presentation for lysosomal enzyme activity in gingival crevicular fluid. J. Clin. Periodontol., 15:347-52, 1988; Lamster et al., Correlation analysis for clinical and gingival crevicular fluid parameters at anatomically related gingival sites. J. Clin. Periodontol., 18:272-77, 1991), from the mesiolingual and mesiobuccal surfaces of the first molar tooth in each quadrant. Where the first molar was absent, the second molar was sampled. If both the first and second molar were missing, the second premolar was sampled. If there were no posterior teeth in a quadrant, no sample was taken from that quadrant.
Briefly, teeth were air-dried and isolated with cotton rolls, supragingival plaque was gently removed, and GCF was sampled with precut methylcellulose filter paper strips for 30 sec. Strips were measured for fluid volume with a calibrated Periotron 6000 (Interstate Drug Exchange, Amityville, N.Y.), then removed to separate microcentrifuge tubes containing 50 μl of phosphate-buffered saline (Tween 20). […] Following elution, each GCF sample was analyzed separately.
GCF samples were analyzed for IL-1β using a commercially-available enzyme-linked immunosorbant assay, Multikine Kit (Cistron Biotechnology, Pine Brook, N.J.). […]
For orientation: ELISA stands for enzyme-linked immunosorbent assay.

In experiment [6] the test system is circulating levels of TNF-α, and IL-6. To be noted: infusion of glutathione; healthy and impaired glucose tolerance individuals; cited from earlier work.

As for `O=C(c1ccccc1)c1ccc2n1CCC2C(=O)O` (stereo not drawn) [Ketorolac], in experiment [1], the “GCF IL-1β in the oral cavity” value is on record as “reduce GCF IL-1β”. Moreover, in experiment [2], the serum glucose levels result was “decline”. Moreover, the “level of serum TNF” value in experiment [3] is listed as “significant reduction”. The HbA1c levels entry in experiment [4] was “decline of HbA1c levels”. Also, the “levels of IL-1β in GCF” value in experiment [5] is “reducing the levels of IL-1β in GCF”.

In the case of `N[C@@H](CCC(=O)N[C@@H](CS)C(=O)NCC(=O)O)C(=O)O` [glutathione], the “circulating cytokines following a glucose bolus administration” value in experiment [6] is “no increase of cytokines”.

These data come from patent publication US7732478B2, “Methods for facilitating metabolic control” (The Trustees of Columbia University in The City of New York, priority 2005, dated 2010).
